# Assay results as given in patent US9266864B2, “VEGFR3 inhibitors” (CANCER THERAPEUTICS CRC PTY LIMITED, priority 2012, dated 2016).
# Biological target: T1, P397Y-FAK (Homo sapiens, UniProt Q05397)
# T1 construct: endogenous in cells; host or cells: MDA-231-LNA
# Assay: P397Y-FAK Inhibition MSD Platform Cellular Biomarker Assay
# Type: cell-based
# Conditions: MDA-231-LNA cells; concentration not given
# Method: 96-well plates (cat#MA6000, Meso Scale Discovery) are coated with 30 μL/well of mouse monoclonal FAK antibody [63D5] (cat#ab72140, Abcam) pre-diluted in PBS to a concentration of 1 mg/mL. The plates are sealed with adhesive film and incubated for 16 hours at 4° C. The antibody is then flicked out of the plates and 150 μL of 3% [w/v] Blocker A (cat#R93AA-1, Meso Scale Discovery) is added. The plates are resealed with adhesive film and incubated at room temperature on a shaker set at medium speed for 2 hours. The plates are then washed three times with a solution containing 50 mM Tris-HCl pH 7.5, 0.15 M NaCl and 0.02% Tween-20, before cell lysate addition described below.
# Cells are split 1:2 into T150 cell culture flasks 2 days prior to compound treatment. On the day prior to compound treatment, 200 μL media containing 20,000 cells is seeded into all wells of white, clear-bottom, TC treated, μclear, 96-well microtitre plates (cat#655098, Greiner Bio-One), and the plates are incubated at 37° C. and 5% CO2 for 36 hours. 1 μL/well of compound is then added from dilution series prepared in DMSO. […] 150 μL/well of Read Buffer T+Surfactant (cat#R92TC-1, Meso Scale Discovery) is then added, and pFAK-397 levels quantified using a Meso Scale Discovery SECTOR Imager 6000 instrument. […]
# T1 sequence (Q05397 2-1052 limits assumed, stated change not applied): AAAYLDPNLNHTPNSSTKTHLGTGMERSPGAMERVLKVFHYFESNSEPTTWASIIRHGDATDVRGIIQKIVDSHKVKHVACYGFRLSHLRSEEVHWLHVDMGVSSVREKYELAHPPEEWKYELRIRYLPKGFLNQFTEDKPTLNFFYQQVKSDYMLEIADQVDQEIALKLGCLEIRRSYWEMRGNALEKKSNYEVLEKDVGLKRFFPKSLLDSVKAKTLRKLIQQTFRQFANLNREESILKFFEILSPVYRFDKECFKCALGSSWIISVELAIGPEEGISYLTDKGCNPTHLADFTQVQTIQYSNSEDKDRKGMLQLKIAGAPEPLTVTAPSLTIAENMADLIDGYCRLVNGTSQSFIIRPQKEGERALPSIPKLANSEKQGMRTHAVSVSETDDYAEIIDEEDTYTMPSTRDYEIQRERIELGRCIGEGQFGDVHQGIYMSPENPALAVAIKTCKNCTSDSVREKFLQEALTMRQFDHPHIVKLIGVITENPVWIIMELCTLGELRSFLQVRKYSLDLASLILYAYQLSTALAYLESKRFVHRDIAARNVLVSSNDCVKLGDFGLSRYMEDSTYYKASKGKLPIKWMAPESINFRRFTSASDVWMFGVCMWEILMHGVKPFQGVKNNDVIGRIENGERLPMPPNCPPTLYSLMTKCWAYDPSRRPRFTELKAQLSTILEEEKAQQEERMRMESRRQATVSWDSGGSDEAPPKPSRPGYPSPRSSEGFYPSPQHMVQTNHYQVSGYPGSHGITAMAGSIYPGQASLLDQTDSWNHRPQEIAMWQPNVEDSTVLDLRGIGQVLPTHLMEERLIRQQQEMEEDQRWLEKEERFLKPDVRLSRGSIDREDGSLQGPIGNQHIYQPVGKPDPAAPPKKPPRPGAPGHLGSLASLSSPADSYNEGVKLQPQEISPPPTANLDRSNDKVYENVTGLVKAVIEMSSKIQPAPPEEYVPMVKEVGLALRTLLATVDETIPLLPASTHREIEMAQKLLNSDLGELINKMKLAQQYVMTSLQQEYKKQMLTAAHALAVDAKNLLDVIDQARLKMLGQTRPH
smiles,measurement,value
"NC(=O)Cc1ccccc1CCc1nc(Nc2ccc(C3CNC3)cc2)ncc1C(F)(F)F [Compound 20, 2-(2-(2-(2-((4-(azetidin-3-yl)phenyl)amino)-5-(trifluoromethyl)pyrimidin-4-yl)ethyl)phenyl)acetamide]",P397Y-FAK inhibition (percent printed in the IC50 column),<50%
